The text below walks through data of the OligoGym collection.

The series has as its target UBE3A-ATS. Put plainly: mouse, dose not given. To be noted: ASO.

HELM strings list units from the 5' end as sugar, base in round brackets, then linkage (d deoxyribose, r ribose, m 2'-O-methyl, p phosphodiester). Strings are as the collection lists them; they lack the last nucleoside at the 3' end of the tested compound. [moe] = 2'-O-(2-methoxyethyl) (MOE); [sp] = phosphorothioate linkage; [m5C] = 5-methylcytosine

The substance “RNA1{[moe](G)[sp].[moe]([m5C])p.[moe](T)p.[moe]([m5C])p.[moe](A)p.[moe](G)[sp].d(T)[sp].d(T)[sp].d(A)[sp].d(G)[sp].d(G)[sp].d(T)[sp].d(T)[sp].d(A)[sp].[moe](G)p.[moe](T)[sp].[moe](G)}$$$$ (last 3' nucleoside missing)” gave a 3 h FOB score of 5 score 0-7.

“RNA1{[moe](T)[sp].[moe](T)p.[moe](A)p.[moe](G)p.[moe](G)p.[moe](T)p.d([m5C])[sp].d(A)[sp].d(A)[sp].d([m5C])[sp].d([m5C])[sp].d(A)[sp].d(A)[sp].d(T)[sp].d(T)[sp].d(T)[sp].[moe](G)p.[moe]([m5C])[sp].[moe](T)}$$$$ (last 3' nucleoside missing)” had a 3 h FOB score of 0 score 0-7.

For the substance “RNA1{[moe](T)[sp].[moe](T)p.[moe](G)p.[moe](G)p.[moe](T)p.d(A)[sp].d(T)[sp].d(T)[sp].d(G)[sp].d(A)[sp].d([m5C])[sp].d(A)[sp].d([m5C])[sp].d([m5C])[sp].d(T)[sp].[moe]([m5C])p.[moe]([m5C])p.[moe](A)[sp].[moe](A)}$$$$ (last 3' nucleoside missing)”, the 3 h FOB score was found to be 1 score 0-7.

“RNA1{[moe](T)[sp].[moe](G)p.[moe](T)p.[moe](G)p.[moe](T)p.[moe](T)p.d(T)[sp].d(T)[sp].d(T)[sp].d([m5C])[sp].d([m5C])[sp].d(A)[sp].d(T)[sp].d(T)[sp].d(T)[sp].d(T)[sp].[moe](T)p.[moe]([m5C])[sp].[moe](T)}$$$$ (last 3' nucleoside missing)” returned a 3 h FOB score of 0 score 0-7.

“RNA1{[moe](T)[sp].[moe](T)p.[moe](G)p.[moe]([m5C])p.[moe](T)p.d(G)[sp].d(A)[sp].d(T)[sp].d([m5C])[sp].d(A)[sp].d([m5C])[sp].d(A)[sp].d(T)[sp].d(T)[sp].d(A)[sp].[moe]([m5C])p.[moe]([m5C])p.[moe]([m5C])[sp].[moe](A)}$$$$ (last 3' nucleoside missing)” yielded a 3 h FOB score of 0 score 0-7.

Substance “RNA1{[moe]([m5C])[sp].[moe]([m5C])p.[moe](A)p.[moe](T)p.[moe](T)p.d(T)[sp].d(T)[sp].d(G)[sp].d(A)[sp].d([m5C])[sp].d([m5C])[sp].d(T)[sp].d(T)[sp].d([m5C])[sp].d(T)[sp].[moe](T)p.[moe](A)p.[moe](G)[sp].[moe]([m5C])}$$$$ (last 3' nucleoside missing)” came in with a 3 h FOB score of 1 score 0-7.

For the substance “RNA1{[moe](T)[sp].[moe](T)p.[moe](A)p.[moe](G)p.[moe]([m5C])p.d([m5C])[sp].d(A)[sp].d(T)[sp].d([m5C])[sp].d(A)[sp].d(T)[sp].d(T)[sp].d(T)[sp].d(T)[sp].d(A)[sp].[moe](T)p.[moe](T)p.[moe]([m5C])[sp].[moe](T)}$$$$ (last 3' nucleoside missing)”, the 3 h FOB score came out at 0 score 0-7.

Turning to “RNA1{[moe](T)[sp].[moe](G)p.[moe](A)p.[moe](T)p.[moe]([m5C])p.d(T)[sp].d(A)[sp].d(T)[sp].d(T)[sp].d(A)[sp].d(T)[sp].d(G)[sp].d(A)[sp].d(G)[sp].d(G)[sp].[moe](G)p.[moe]([m5C])p.[moe](A)[sp].[moe](T)}$$$$ (last 3' nucleoside missing)”, the 3 h FOB score came out at 2 score 0-7.

Turning to “RNA1{[moe](G)[sp].[moe](G)p.[moe]([m5C])p.[moe](T)p.[moe](T)p.d(T)[sp].d(A)[sp].d(T)[sp].d(A)[sp].d([m5C])[sp].d(T)[sp].d(T)[sp].d(T)[sp].d(A)[sp].d([m5C])[sp].[moe]([m5C])p.[moe]([m5C])p.[moe](A)[sp].[moe](A)}$$$$ (last 3' nucleoside missing)”, the 3 h FOB score stood at 1 score 0-7.

In the case of “RNA1{[moe](G)[sp].[moe]([m5C])p.[moe](A)p.[moe](T)p.[moe](A)p.[moe]([m5C])p.d([m5C])[sp].d([m5C])[sp].d(A)[sp].d(G)[sp].d(G)[sp].d(G)[sp].d(T)[sp].d(A)[sp].d(G)[sp].d(G)[sp].[moe](A)p.[moe](T)[sp].[moe](T)}$$$$ (last 3' nucleoside missing)”, the 3 h FOB score amounted to 1 score 0-7.

Turning to “RNA1{[moe]([m5C])[sp].[moe](T)p.[moe](G)p.[moe](A)p.[moe](G)p.d(T)[sp].d([m5C])[sp].d(A)[sp].d(G)[sp].d(T)[sp].d([m5C])[sp].d([m5C])[sp].d(A)[sp].d(A)[sp].d(A)[sp].[moe](T)p.[moe](G)p.[moe](A)[sp].[moe](A)}$$$$ (last 3' nucleoside missing)”, the 3 h FOB score was 0.5 score 0-7.

Regarding “RNA1{[moe](G)[sp].[moe](G)p.[moe]([m5C])p.[moe](A)p.[moe](A)p.d(T)[sp].d(G)[sp].d(G)[sp].d(A)[sp].d([m5C])[sp].d(T)[sp].d(T)[sp].d(A)[sp].d(G)[sp].d(T)[sp].[moe](A)p.[moe]([m5C])p.[moe](A)[sp].[moe]([m5C])}$$$$ (last 3' nucleoside missing)”, the 3 h FOB score came to 2.3 score 0-7.

The substance “RNA1{[moe](G)[sp].[moe](T)p.[moe]([m5C])p.[moe](T)p.[moe](T)p.d([m5C])[sp].d(A)[sp].d(T)[sp].d(T)[sp].d(A)[sp].d(T)[sp].d(T)[sp].d([m5C])[sp].d(T)[sp].d([m5C])[sp].[moe](T)p.[moe](A)p.[moe](G)[sp].[moe](T)}$$$$ (last 3' nucleoside missing)” yielded a 3 h FOB score of 4.7 score 0-7.

The substance “RNA1{[moe](A)[sp].[moe]([m5C])p.[moe](G)p.[moe]([m5C])[sp].d(A)[sp].d(A)[sp].d(T)[sp].d(G)[sp].d(T)[sp].d(A)[sp].d(T)[sp].d([m5C])[sp].[moe](A)p.[moe](G)p.[moe](G)p.[moe]([m5C])[sp].[moe](A)}$$$$ (last 3' nucleoside missing)” gave a 3 h FOB score of 1 score 0-7.

“RNA1{[moe](A)[sp].[moe](G)p.[moe](T)p.[moe](G)p.[moe]([m5C])p.d([m5C])[sp].d(T)[sp].d(T)[sp].d(T)[sp].d([m5C])[sp].d(T)[sp].d(A)[sp].d(T)[sp].d(T)[sp].d(T)[sp].[moe]([m5C])p.[moe](A)p.[moe](G)[sp].[moe](A)}$$$$ (last 3' nucleoside missing)”: the 3 h FOB score was 0 score 0-7.

“RNA1{[moe](A)[sp].[moe]([m5C])p.[moe](A)p.[moe](T)p.[moe](A)p.d([m5C])[sp].d(T)[sp].d(T)[sp].d(G)[sp].d(G)[sp].d(T)[sp].d(T)[sp].d(G)[sp].d([m5C])[sp].d(A)[sp].[moe](G)p.[moe](A)p.[moe]([m5C])[sp].[moe](G)}$$$$ (last 3' nucleoside missing)” gave a 3 h FOB score of 4.8 score 0-7.

On to “RNA1{[moe]([m5C])[sp].[moe]([m5C])p.[moe](A)p.[moe](A)p.[moe](T)p.d(A)[sp].d(T)[sp].d(T)[sp].d(T)[sp].d(T)[sp].d(G)[sp].d(A)[sp].d([m5C])[sp].d(T)[sp].d(A)[sp].[moe](G)p.[moe](T)p.[moe](T)[sp].[moe]([m5C])}$$$$ (last 3' nucleoside missing)”, for which the 3 h FOB score stood at 4.2 score 0-7.

As to “RNA1{[moe]([m5C])[sp].[moe](T)p.[moe](T)p.[moe](T)p.[moe]([m5C])p.d(A)[sp].d(T)[sp].d([m5C])[sp].d(A)[sp].d(G)[sp].d(T)[sp].d(T)[sp].d(A)[sp].d(G)[sp].d(T)[sp].[moe]([m5C])p.[moe](A)p.[moe](G)[sp].[moe](G)}$$$$ (last 3' nucleoside missing)”, the 3 h FOB score was 3.5 score 0-7.

Turning to “RNA1{[moe]([m5C])[sp].[moe](A)p.[moe](T)p.[moe](A)p.[moe]([m5C])p.[moe]([m5C])[sp].d([m5C])[sp].d(A)[sp].d(G)[sp].d(G)[sp].d(G)[sp].d(T)[sp].d(A)[sp].d(G)[sp].[moe](G)p.[moe](A)[sp].[moe](T)}$$$$ (last 3' nucleoside missing)”, the 3 h FOB score is 2 score 0-7.

With “RNA1{[moe](A)[sp].[moe](G)p.[moe](G)p.[moe](A)p.[moe](T)p.d(T)[sp].d(A)[sp].d(A)[sp].d(A)[sp].d(A)[sp].d(G)[sp].d(T)[sp].d(T)[sp].d(G)[sp].d(A)[sp].[moe](A)p.[moe](A)p.[moe]([m5C])[sp].[moe](A)}$$$$ (last 3' nucleoside missing)”, the 3 h FOB score was determined as 4 score 0-7.

With “RNA1{[moe]([m5C])[sp].[moe](T)p.[moe](T)p.[moe](T)p.[moe](A)p.d(G)[sp].d(T)[sp].d(A)[sp].d(T)[sp].d(G)[sp].d(T)[sp].d([m5C])[sp].d(G)[sp].d(A)[sp].d(G)[sp].[moe](A)p.[moe](A)p.[moe]([m5C])[sp].[moe](T)}$$$$ (last 3' nucleoside missing)”, the 3 h FOB score turned out to be 5 score 0-7.

“RNA1{[moe]([m5C])[sp].[moe](A)p.[moe](G)p.[moe](T)p.[moe](T)p.[moe](A)p.d(G)[sp].d(G)[sp].d(T)[sp].d(T)[sp].d(A)[sp].d(G)[sp].d(T)[sp].d(G)[sp].d([m5C])[sp].d(A)[sp].[moe]([m5C])p.[moe](A)[sp].[moe](G)}$$$$ (last 3' nucleoside missing)” came in with a 3 h FOB score of 5.2 score 0-7.

Substance “RNA1{[moe]([m5C])[sp].[moe](A)[sp].[moe](A)[sp].[moe]([m5C])[sp].[moe](T)[sp].d(G)[sp].d(T)[sp].d(T)[sp].d(A)[sp].d([m5C])[sp].d([m5C])[sp].d(A)[sp].d(A)[sp].d(G)[sp].d(A)[sp].[moe]([m5C])[sp].[moe](T)[sp].[moe](T)[sp].[moe]([m5C])}$$$$ (last 3' nucleoside missing)” showed a 3 h FOB score of 4.8 score 0-7.

“RNA1{[moe]([m5C])[sp].[moe](T)p.[moe](T)p.[moe](T)p.[moe](A)p.d(T)[sp].d(A)[sp].d([m5C])[sp].d(T)[sp].d(T)[sp].d(T)[sp].d(A)[sp].d([m5C])[sp].d([m5C])[sp].d([m5C])[sp].[moe](A)p.[moe](A)p.[moe]([m5C])[sp].[moe](T)}$$$$ (last 3' nucleoside missing)”: the 3 h FOB score was determined as 0 score 0-7.

Consider “RNA1{[moe](A)[sp].[moe](T)p.[moe](G)p.[moe](G)p.[moe](G)p.d(A)[sp].d(G)[sp].d([m5C])[sp].d(T)[sp].d([m5C])[sp].d(T)[sp].d(G)[sp].d(G)[sp].d(A)[sp].d(A)[sp].[moe](A)p.[moe](A)p.[moe]([m5C])[sp].[moe](A)}$$$$ (last 3' nucleoside missing)”, for which the 3 h FOB score was 4 score 0-7.

Take “RNA1{[moe](G)[sp].[moe](G)p.[moe](G)p.[moe](A)p.[moe](T)p.d(A)[sp].d(T)[sp].d(A)[sp].d(T)[sp].d([m5C])[sp].d(A)[sp].d([m5C])[sp].d(T)[sp].d(T)[sp].d(G)[sp].[moe](G)p.[moe](A)p.[moe](G)[sp].[moe]([m5C])}$$$$ (last 3' nucleoside missing)”: the 3 h FOB score stood at 4 score 0-7.
